From patent US7338776B2, “Production of UGPPase” (JCR Pharmaceuticals Co., Ltd., priority 2002, dated 2008)

T1: human UGPPase (Homo sapiens, UniProt O95848)
T1 construct: made in house; host or cells: E. coli AD494(DE3), plasmid pET11a-AAD15563.1
T1 sequence (O95848 1-222): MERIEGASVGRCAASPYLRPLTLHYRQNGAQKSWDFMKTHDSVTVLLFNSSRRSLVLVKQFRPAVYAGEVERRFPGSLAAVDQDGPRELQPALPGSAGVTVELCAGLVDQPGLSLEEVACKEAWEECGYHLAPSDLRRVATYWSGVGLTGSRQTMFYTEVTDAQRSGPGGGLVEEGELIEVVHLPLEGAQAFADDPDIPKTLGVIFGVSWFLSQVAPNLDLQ

T2: Porcine UGPPase (Sus scrofa, UniProt Q865Y9)
T2 construct: Fresh porcine kidney, 3.6-kg of weight, was homogenized; from tissue; host or cells: porcine kidney
T2 sequence (Q865Y9 1-222): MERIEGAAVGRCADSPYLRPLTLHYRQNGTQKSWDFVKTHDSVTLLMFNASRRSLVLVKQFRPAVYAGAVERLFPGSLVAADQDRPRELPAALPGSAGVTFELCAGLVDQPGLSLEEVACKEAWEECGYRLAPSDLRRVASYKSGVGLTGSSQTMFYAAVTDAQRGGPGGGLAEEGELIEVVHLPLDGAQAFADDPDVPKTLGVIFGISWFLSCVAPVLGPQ

B1: human UGPPase: recombinant protein AAD15563.1 (SEQ ID NO:2) expressed in E. coli AD494(DE3), final MonoP-purified product (protein, listed as Homo sapiens)
chain: T1 sequence (O95848 1-222)
modifications: USPPase
B2: hUGPPase His-tag fusion protein: His-tagged hUGPPase expressed from pET-19b AAD15563.1 in E. coli, purified; ELISA standard (protein)
chain: MGLLLPLPVPGLLLLEAETHPHFPCNHGQEGACTRHARVRAYPGPLVHRRKRPAWLWELAAPACPGAAMERIEGASVGRCAASPYLRPLTLHYRQNGAQKSWDFMKTHDSVTVLLFNSSRRSLVLVKQFRPAVYAGEVERRFPGSLAAVDQDGPRELQPALPGSAGVTVELCAGLVDQPGLSLEEVACKEAWEECGYHLAPSDLRRVATYWSGVGLTGSRQTMFYTEVTDAQRSGPGGGLVEEGELIEVVHLPLEGAQAFADDPDIPKTLGVIFGVSWFLSQVAPNLDLQ
modifications: left off: small tags and cut ends
notes: His-tagged hUGPPase expressed from pET-19b AAD15563.1 in E. coli, purified; ELISA standard

Tests used:
[1] = target: T1, human UGPPase; test: UGPPase activity measurement (G1P produced, coupled NADH read-out), substrate specificity and UDPG dependence, human recombinant enzyme; type: biochemical; details: 5 mM of corresponding substrate, UDPG = 100%
Experimental: (§1) UGPPase activity is defined based on the amount of G1P produced by the enzyme. The measurement is carried in two-step reactions according to the method reported by Rodriguez-Lopez et al. (11). In the first reaction, 50 μl of the reaction mixture consisting of a sample containing UGPPase, 0-20 mM concentration of a sugar nucleotide (UDP-, ADP- or GDP-glucose)(SIGMA), 20 mM MgCl2, and 50 mM Tris-HCl (pH 9.0), and the mixture is incubated at 37° C. for 30 minutes. As a blank, the same sample that has been boiled for two minutes to inactivate UGPPase is used. After the incubation period, the reaction is terminated by a two-minute boiling, and the mixture centrifuged at 20,000 g for 10 minutes at 4° C.
(§2) The reaction mixture is placed in a 96-well FluoroNunc™ plate (NUNC) and incubated at 37° C. for 10 minutes. This second reaction produces an equimolar amount of NADH to that of G1P produced in the first reaction. The amount of NADH is determined by measuring OD at 340 nm using a microplate reader (MOLECULAR DEVICE).
(§3) The activity was calculated as follows: 1U=[a]/30/0.03 where [a]is the amount in μmol of NADH produced in the reaction.
(§4) The above conditions of the first reaction were modified according to the purpose of each of the test, as specifically indicated below.

[2] = target: T2, Porcine UGPPase; test: UGPPase activity measurement (G1P produced, coupled NADH read-out), substrate specificity and UDPG dependence, porcine enzyme; type: biochemical, pig; details: 5 mM of corresponding substrate, UDPG = 100%
Experimental: as §1, §2, §3, §4

[3] = Specific activity and optimal pH of purified UGPPase products; type: biochemical; details: UGPPase activity
Experimental: as §1, §2, §3, §4

[4] = target: rabbit anti-hUGPPase antibody; test: hUGPPase ELISA; type: binding; details: rabbit anti-hUGPPase antibody as solid phase, fusion protein as standard (FIG. 23)
Experimental: The rabbit anti-hUGPPase antibody prepared in (14) above was diluted with 50 mM NaHCO3, pH 9.6 to prepare a 25 μg/ml solution. The solution was added to the wells of a 96-well plate (NUNC), 100 μl each, and incubated at 37° C. for 1 hour for coating. The antibody solution was removed and 300 μl of a blocking buffer [1.0% (w/v) BSA, PBS, 10 mM glycine, pH 7.4] was added to each well and incubated at 37° C. for 1 hour for blocking.
For preparation of a standard, hUGPPase His-tag fusion protein was diluted stepwise to 10 μg/ml-0.1 ng/ml using a dilution buffer [20 mM Tris, 150 mM NaCl, 0.1% (w/v) BSA, pH7.4].
To use as samples, two types of E. coli AD494(DE3) cells, the one with introduced plasmid pET-19b AAD15563.1 and the other with plasmid pET-19b, respectively, were lysed and diluted to 50, 5, 0.5 and 0.05 μg/ml with the dilution buffer. Each well of the plate was removed of the blocking buffer and washed 3 times with 300 μl each of TTBS. To each well was added 100 μl of the standard or the sample solution and an incubation followed at 37° C. for 1 hour.
For detection of hUGPPase His-tag fusion protein, the HRP-conjugated rabbit anti-hUGPPase antibody prepared in (15) was used after dilution to 0.5 μg/ml with the dilution buffer. […] After a 5-min incubation at room temperature, 50 μl of 2M H2SO4 was added to each well to terminate the reaction, and OD at 450 nm was measured.

Molecule	% activity with respect to UDPG [1]	% activity with respect to UDPG [2]	Specific activity of the final purified product [3] [U/mg]	Specific activity of the final purified product ([3]; listed as r-hUGPPase) [U/mg]	EC50 (effecter concentration for half-maximum response) of the ELISA system [4] [µg/mL]
Nc1ncnc2c1ncn2[C@@H]1O[C@H](COP(=O)(O)OP(=O)(O)OC[C@H]2OC(O)[C@H](O)[C@@H]2O)[C@@H](O)[C@H]1O (stereo partly shown) [ADP-ribose]	110%	95%			
Nc1ncnc2c1ncn2[C@@H]1O[C@H](COP(=O)(O)OP(=O)(O)O)[C@@H](O)[C@H]1O [ADP]	bdl	bdl			
Nc1ncnc2c1ncn2[C@@H]1O[C@H](COP(=O)(O)O)[C@@H](O)[C@H]1O [AMP, adenosine 5′-monophosphate]	bdl	bdl			
Nc1ncnc2c1ncn2[C@@H]1O[C@H](COP(=O)(O)OP(=O)(O)OP(=O)(O)O)[C@@H](O)[C@H]1O [ATP]	bdl	bdl			
O=[N+]([O-])c1ccc(OP(=O)(O)Oc2ccc([N+](=O)[O-])cc2)cc1 [Bis-PNPP]	bdl	bdl			
Nc1ccn([C@@H]2O[C@H](COP(=O)(O)OP(=O)(O)O[C@H]3O[C@H](CO)[C@@H](O)[C@H](O)[C@H]3O)[C@@H](O)[C@H]2O)c(=O)n1 [CDPG]	3%	2%			
Nc1nc2c(ncn2[C@@H]2O[C@H](COP(=O)(O)OP(=O)(O)O[C@H]3O[C@H](CO)[C@@H](O)[C@H](O)[C@H]3O)[C@@H](O)[C@H]2O)c(=O)[nH]1 [GDPG, GDP-glucose]	~10%	~10%			
NC(=O)c1ccc[n+]([C@@H]2O[C@H](COP(=O)([O-])OP(=O)(O)OC[C@H]3O[C@@H](n4cnc5c(N)ncnc54)[C@H](O)[C@@H]3O)[C@@H](O)[C@H]2O)c1 [NAD]	bdl	bdl			
O=[N+]([O-])c1ccc(OP(=O)(O)O)cc1 [PNPP]	bdl	bdl			
O=C(O)[C@H]1O[C@H](OP(=O)(O)OP(=O)(O)OC[C@H]2O[C@@H](n3ccc(=O)[nH]c3=O)[C@H](O)[C@@H]2O)[C@H](O)[C@@H](O)[C@@H]1O [UDP-glucuronic]	bdl	bdl			
O=c1ccn([C@@H]2O[C@H](COP(=O)(O)OP(=O)(O)OP(=O)(O)O)[C@@H](O)[C@H]2O)c(=O)[nH]1 [UTP]	bdl	bdl			
B1			6.7	6.74	
B2					0.2468
